Measurements: patent publication US8945595B2, “Insect repellent and attractants” (The Regents of the University of California, priority 2009, dated 2015)
“Also recorded” adds a separate entry of the source.

Key:
[1] = tested on: CO2 sensitive A neuron of peg sensillum; experiment: activation of CO2 sensitive neuron with a volatile odorant; type: cell-based, Culex quinquefasciatus; conditions: indicated concentrations
Protocol: (§1) FIG. 2 depicts electrophysiology measurements of the peg sensillum on the mosquito maxillary palp. The palp, indicated in brown in the schematic of the mosquito head, has several peg sensilla. Each peg sensilla (grey club-like structure in the center) contains three olfactory neurons A, B and C as indicated, of which the ‘A’ neuron gives a robust and specific increase in frequency of action potentials in response to a stimulus of CO2. Extracellular single-unit recordings are performed by inserting a glass microelectrode into the peg sensilla, and puffing an odor such as CO2 towards the mosquito maxillary palps. The signal is amplified to obtain the trace of action potentials.
(a) Action potential traces from the peg sensillum of the maxillary palp show spike amplitudes from three neurons, where the spikes with the largest amplitude belongs to the CO2 sensitive A neuron. (b) 1 sec of the indicated dilution 2,3-butanedione is puffed to Aedes aegypti. (c) 1 sec of indicated odor is puffed to Anopheles gambiae. (d) butanone and (e) 2,3-butanedione are given to Culex quinquefasciatus at the indicated concentrations. PO=paraffin oil. n=5. Baseline activity subtracted. Error bars indicate SEM.

[2] = tested on: CO2-sensitive ab1C neurons; experiment: single-sensillum electrophysiology, inhibition of CO2 response of ab1C neurons; type: cell-based, Drosophila; conditions: odourant 10^-2; 3-sec 0.3% CO2 with 1-sec odourant
Text: Representative traces (top) and mean responses (bottom) from single-sensillum electrophysiology of ab1 sensilla in mutant flies; spikes represent activity of the ab1C neuron. a, 3-sec stimulus of odourant overlaid with a 1-sec application of 0.3% CO2. b, 3-sec stimulus of 0.3% CO2 overlaid with a 1-sec application of odourant. PO=paraffin oil, d4on=2,3-butanedione, 6ol=1-hexanol. n=6, error bars=s.e.m. Spikes per second were counted during the 1-sec stimulus period, and spontaneous activity subtracted. (For data in a and b, T-test, *P<0.001, **P<0.005, ***P<0.01, ****P<0.05) c, ab1C responses to indicated concentrations of CO2 in the presence of solvent (PO), 1-hexanol (6ol) or 2,3-butanedione (d4on). Odourants were tested at 10^−1 dilution. Firing rates were counted in consecutive 0.1-sec bins. n=3, error bars=s.e.m.
Bars indicate stimulus periods for 0.3% CO2, and overlays with 1-hexanol (6ol) or 2,3-butanedione (d4on) at the indicated concentrations. b, Recovery of ab1C responsiveness to a 0.5-sec, 0.3% CO2 stimulus applied every 30-sec after initial treatment with 3-sec stimulus of either d4on (10^−1) or paraffin oil (PO). n=5, error bars=s.e.m., (T-test, *P<0.005, **<0.01, ***P<0.05). c, CO2 response inhibition by structurally related compounds. A 3-sec stimulus of 0.3% CO2 was delivered in combination with 1-sec application of indicated odourant (10^−2) as in a. Percent increase or decrease in mean ab1C response was calculated relative to mean response of paraffin oil. n=5. d, Structures of CO2 and the 4 strongest antagonists. e-f, show mean odourant responses. e, Odourants were tested on ab1C neurons in Or83b2 flies at 10^−2 dilution in paraffin oil. Bars represent values after subtraction of mean response to paraffin oil. n=3. f, Odourants at indicated concentrations were tested on ab3A neuron in wild-type (wt) and ΔHalo (AH) mutants that lack Or22a and Or22b. Bars represent values after subtraction of spontaneous activity. n=5, error bars=s.e.m.
FIG. 16 is a schematic diagram of an odour-delivery system to maintain steady concentration of CO2 in binary mixture experiments. Cartridges were made from Pasteur pipettes with pre-filled cotton wool inserts. […] odorant dissolved in paraffin oil (at specific concentrations) was applied to the cotton wool, and a 1.5 ml disposable tip attached to the open end to make the “odour cartridge”. A controlled “humidified air flow” was generated from a compressed air cylinder by bubbling through water, and passed through a glass tube, and released over the recording arena holding the Drosophila. A C-55 stimulus controller (Syntech) was used to generate an additional activated-charcoal filtered continuous air flow of 5 ml/sec which was delivered into the humidified airstream through a “blank cartridge” with the tip placed through a hole in the tube. To generate controlled odourant stimulus the C-55 stimulus controller was used to switch air flow from the “continuous air flow” to “odor stimulus flow” channel. An additional CO2 stimulus was pulsed through a separate system that delivered controlled pulses (variable 2.5 ml/sec-6.5 ml/sec) into the same humidified airstream, from either a 1%, 5% or 100% cylinder of CO2 (Airgas).
Extracellular single-unit recordings were performed. Odourant stimuli were delivered via Pasteur pipette odour cartridges (see, FIG. 16). Chemicals were of the highest purity available, typically>99% (Sigma-Aldrich). All odourants were diluted in paraffin oil. A controlled volume of air 5 ml/sec was puffed through the odour cartridge containing vapours, and was delivered into a constant humidified airstream of 10 ml/sec that was passed over the fly antenna. […] CO2 stimulus was pulsed through a separate delivery system that delivered controlled pulses (variable 2.5 ml/sec-6.5 ml/sec) into the same humidified airstream, from either a 1%, 5% or 100% tank of CO2 (Airgas). […]

[3] = tested on: CO2 sensitive neuron (A neuron) of peg sensillum; experiment: single-sensillum electrophysiology of maxillary palp peg sensillum, inhibition of CO2 response; type: cell-based, Culex quinquefasciatus; conditions: 3-sec pre-exposure, 10^-1; 0.25% CO2 impulse every 30-sec over 6-min
Protocol: as §1
Action potential traces from the peg sensillum of the maxillary palp show spike amplitudes from three neurons, where the highest spike (from neuron A) indicates the CO2 response. A 3-sec stimulus of 0.3% CO2 (indicated by longer black bar), is overlaid with a 0.5-sec stimulus of candidate odors. […]
The recovery of the response to a 0.25% impulse (top) or 0.3% impulse (bottom) of CO2 was measured every 30-sec over a 6-min time period, after an initial 3-sec pre-exposure with (A) butanal (10^−1) (top), or (B) an ‘odor mixture’ consisting of 1-hexanol, pentanal, butanal, and 2,3-butanedione at 10^−2 concentration (bottom). […]

[4] = tested on: CO2 sensitive neuron (A neuron) of peg sensillum; experiment: as above; type: cell-based, Aedes aegypti; conditions: 3-sec pre-exposure, 10^-1; 0.3% CO2 impulse every 30-sec over 6-min
Protocol: as §1
Action potential traces from the peg sensillum of the maxillary palp show spike amplitudes from three neurons, where the highest spike (from neuron A) indicates the CO2 response. A 3-sec stimulus of 0.3% CO2 (indicated by longer black bar), overlaid with a 1-sec stimulus of odor. CO2 and odor stimuli are applied in the same manner as discussed above. […]
The recovery of the response to a 0.3% impulse of CO2 was measured every 30-sec over a 6-min time period, after an initial 3-sec pre-exposure with (A) butanal (10^−1), or (B) an ‘odor mixture’ consisting of 1-hexanol, pentanal, butanal, and 2,3-butanedione at 10^−2 concentration. […]

Row | Compound | activation of CO2 sensitive neuron [1] | CO2 response inhibition by structurally related odourants [2] | CO2 response after pre-exposure [3] | CO2 response after pre-exposure [4]
1 | CCC(C)=O [butanone] | activation; also recorded: activator | – | – | –
2 | CCCCC=O [pentanal] | – | effective inhibitors | – | –
3 | CCCC=O [butanal] | – | effective inhibitors | long term reduction in CO2 response | long term reduction in CO2 response
